Experimental data taken from patent US9999619B2, “Piperidin-4-yl azetidine derivatives as JAK1 inhibitors” (Incyte Corporation, priority 2010, dated 2018).

How the values were obtained:
Type in all cases: biochemical
[1] = biological target: Jak2 (a.a. 828-1132) (Homo sapiens (Human), UniProt O60674); test: In vitro JAK kinase assay (HTRF, phosphorylation of a biotinylated peptide), JAK2; details: measured at 1 mM ATP
Method in brief: (§1)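 N-terminal His-tagged catalytic domains, baculovirus-expressed in insect cells, phosphorylated a biotinylated peptide for 1 hr at room temperature. EDTA stop was followed by SA-APC and Eu-Py20 antibody for 40 minutes, with phosphopeptide read by HTRF.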

[2] = biological target: human JAK1 (a.a. 837-1142); test: In vitro JAK kinase assay (HTRF, phosphorylation of a biotinylated peptide), JAK1; details: ratio of JAK2 IC50 to JAK1 IC50, measured at 1 mM ATP
Method in brief: as §1

[3] = biological target: human JAK1 (a.a. 837-1142) (Homo sapiens, UniProt P23458); test: as above; details: measured at 1 mM ATP
Method in brief: as §1

Chain of Jak2 (a.a. 828-1132) (O60674 828-1132): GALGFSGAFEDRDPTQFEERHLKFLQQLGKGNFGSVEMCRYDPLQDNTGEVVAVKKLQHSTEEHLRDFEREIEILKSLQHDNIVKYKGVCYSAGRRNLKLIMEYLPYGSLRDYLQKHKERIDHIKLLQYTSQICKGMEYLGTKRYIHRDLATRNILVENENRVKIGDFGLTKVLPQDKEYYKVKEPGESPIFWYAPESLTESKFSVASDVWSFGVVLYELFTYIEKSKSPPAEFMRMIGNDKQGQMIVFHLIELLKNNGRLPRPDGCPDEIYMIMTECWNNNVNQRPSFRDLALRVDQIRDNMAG

SMILES: COc1cscc1C(=O)N1CCC(N2CC(CC#N)(n3cc(-c4ncnc5[nH]ccc45)cn3)C2)CC1 [Example 72, {1-{1-[(4-methoxy-3-thienyl)carbonyl]piperidin-4-yl}-3-[4-(7H-pyrrolo[2,3-d]pyrimidin-4-yl)-1H-pyrazol-1-yl]azetidin-3-yl}acetonitrile]
- IC50 [1]: ≤ 10 nM
- IC50 Ratio JAK2/JAK1 [2]: 6.6
- IC50 [3]: ≤ 5 nM

SMILES: N#CCC1(n2cc(-c3ncnc4[nH]ccc34)cn2)CN(C2CCN(C(=O)OCc3ccc(F)c(F)c3)CC2)C1 [Example 394, 3,4-difluorobenzyl 4-{3-(cyanomethyl)-3-[4-(7H-pyrrolo[2,3-d]pyrimidin-4-yl)-1H-pyrazol-1-yl]azetidin-1-yl}piperidine-1-carboxylate]
- IC50 [1]: 50 to 100 nM
- IC50 Ratio JAK2/JAK1 [2]: 11.1
- IC50 [3]: 5 to 20 nM

SMILES: N#CCC1(n2cc(-c3ncnc4[nH]ccc34)cn2)CN(C2CC3CCC(C2)N3Cc2c(F)ccc(F)c2Cl)C1 (stereo not drawn) [Example 241, {1-[8-(2-Chloro-3,6-difluorobenzyl)-8-azabicyclo[3.2.1]oct-3-yl]-3-[4-(7H-pyrrolo[2,3-d]pyrimidin-4-yl)-1H-pyrazol-1-yl]azetidin-3-yl}acetonitrile]
- IC50 [1]: ≤ 10 nM
- IC50 Ratio JAK2/JAK1 [2]: 3.8
- IC50 [3]: ≤ 5 nM

SMILES: COc1cccc(NC(=O)N2CCC(N3CC(CC#N)(n4cc(-c5ncnc6[nH]ccc56)cn4)C3)CC2)c1 [Example 181, 4-{3-(cyanomethyl)-3-[4-(7H-pyrrolo[2,3-d]pyrimidin-4-yl)-1H-pyrazol-1-yl]azetidin-1-yl}-N-(3-methoxyphenyl)piperidine-1-carboxamide]
- IC50 [1]: 10 to 50 nM
- IC50 Ratio JAK2/JAK1 [2]: 4.9
- IC50 [3]: ≤ 5 nM

SMILES: N#CCC1(n2cc(-c3c(F)cnc4[nH]ccc34)cn2)CN(C2CCN(C(=O)c3cnc(C(F)(F)F)cn3)CC2)C1 [Example 354, [3-[4-(5-Fluoro-1H-pyrrolo[2,3-b]pyridin-4-yl)-1H-pyrazol-1-yl]-1-(1-{[5-(trifluoromethyl)pyrazin-2-yl]carbonyl}piperidin-4-yl)azetidin-3-yl]acetonitrile]
- IC50 [1]: 10 to 50 nM
- IC50 Ratio JAK2/JAK1 [2]: 2.1
- IC50 [3]: 5 to 20 nM

SMILES: N#CCC1(n2cc(-c3ncnc4[nH]ccc34)cn2)CN(C2CCN(C(=O)Nc3nccs3)CC2)C1 [Example 190, 4-{3-(cyanomethyl)-3-[4-(7H-pyrrolo[2,3-d]pyrimidin-4-yl)-1H-pyrazol-1-yl]azetidin-1-yl}-N-1,3-thiazol-2-ylpiperidine-1-carboxamide]
- IC50 [1]: 50 to 100 nM
- IC50 Ratio JAK2/JAK1 [2]: 2.1
- IC50 [3]: 20 to 30 nM

SMILES: N#CCC1(n2cc(-c3ncnc4[nH]ccc34)cn2)CN(C2CCN(C(=O)c3ccnc(C(F)(F)F)c3)CC2)C1 [Example 57, (3-[4-(7H-pyrrolo[2,3-d]pyrimidin-4-yl)-1H-pyrazol-1-yl]-1-{1-[2-(trifluoromethyl)isonicotinoyl]piperidin-4-yl}azetidin-3-yl)acetonitrile]
- IC50 [1]: > 100 nM
- IC50 Ratio JAK2/JAK1 [2]: 3.3
- IC50 [3]: > 30 nM

SMILES: CN(C)Cc1cc(C(=O)N2CCC(N3CC(CC#N)(n4cc(-c5ncnc6[nH]ccc56)cn4)C3)CC2)c(F)c(C(F)(F)F)n1 [Example 368, {1-{1-[6-[(dimethylamino)methyl]-3-fluoro-2-(trifluoromethyl)isonicotinoyl]piperidin-4-yl}-3-[4-(7H-pyrrolo[2,3-d]pyrimidin-4-yl)-1H-pyrazol-1-yl]azetidin-3-yl}acetonitrile]
- IC50 [1]: 10 to 50 nM
- IC50 Ratio JAK2/JAK1 [2]: 54.2
- IC50 [3]: ≤ 5 nM

SMILES: N#CCC1(n2cc(-c3ncnc4[nH]ccc34)cn2)CN(C2CCN(Cc3c(Cl)cncc3Cl)CC2)C1 [Example 237, {1-{1-[(3,5-dichloropyridin-4-yl)methyl]piperidin-4-yl}-3-[4-(7H-pyrrolo[2,3-d]pyrimidin-4-yl)-1H-pyrazol-1-yl]azetidin-3-yl}acetonitrile]
- IC50 [1]: 10 to 50 nM
- IC50 Ratio JAK2/JAK1 [2]: 2.3
- IC50 [3]: 5 to 20 nM

SMILES: N#CCC1(n2ccc(-c3ncnc4[nH]ccc34)c2)CN(C2CCN(C(=O)c3cc(F)cc(C(F)(F)F)c3)CC2)C1 [Example 274, {1-{1-[3-fluoro-5-(trifluoromethyl)benzoyl]piperidin-4-yl}-3-[3-(7H-pyrrolo[2,3-d]pyrimidin-4-yl)-1H-pyrrol-1-yl]azetidin-3-yl}acetonitrile]
- IC50 [1]: 10 to 50 nM
- IC50 Ratio JAK2/JAK1 [2]: 9.0
- IC50 [3]: ≤ 5 nM

SMILES: N#CCC1(n2cc(-c3ncnc4[nH]ccc34)cn2)CN(C2CCN(C(=O)c3ccc(F)c(F)c3)CC2)C1 [Example 35, {1-[1-(3,4-difluorobenzoyl)piperidin-4-yl]-3-[4-(7H-pyrrolo[2,3-d]pyrimidin-4-yl)-1H-pyrazol-1-yl]azetidin-3-yl}acetonitrile]
- IC50 [1]: 10 to 50 nM
- IC50 Ratio JAK2/JAK1 [2]: 6.9
- IC50 [3]: ≤ 5 nM

SMILES: N#CCC1(n2cc(-c3ncnc4[nH]ccc34)cn2)CN(C2CCN(C(=O)Nc3ccsc3)CC2)C1 [Example 179, 4-{3-(cyanomethyl)-3-[4-(7H-pyrrolo[2,3-d]pyrimidin-4-yl)-1H-pyrazol-1-yl]azetidin-1-yl}-N-3-thienylpiperidine-1-carboxamide]
- IC50 [1]: 50 to 100 nM
- IC50 Ratio JAK2/JAK1 [2]: 3.8
- IC50 [3]: 5 to 20 nM

SMILES: N#CCC1(n2cc(-c3c(C#N)cnc4[nH]ccc34)cn2)CN(C2CCN(C(=O)c3ccnc(C(F)(F)F)c3F)CC2)C1 [Example 332, 4-[1-(3-(Cyanomethyl)-1-{1-[3-fluoro-2-(trifluoromethyl)isonicotinoyl]piperidin-4-yl}azetidin-3-yl)-1H-pyrazol-4-yl]-1H-pyrrolo[2,3-b]pyridine-5-carbonitrile]
- IC50 [1]: 50 to 100 nM
- IC50 Ratio JAK2/JAK1 [2]: 19.3
- IC50 [3]: ≤ 5 nM

SMILES: N#CCC1(n2cc(-c3ncnc4[nH]ccc34)cn2)CN(C2CCN(C(=O)c3cc(C(F)(F)F)ncc3F)CC2)C1 [Example 343, {1-{1-[5-Fluoro-2-(trifluoromethyl)isonicotinoyl]piperidin-4-yl}-3-[4-(7H-pyrrolo[2,3-d]pyrimidin-4-yl)-1H-pyrazol-1-yl]azetidin-3-yl}acetonitrile]
- IC50 [1]: 50 to 100 nM
- IC50 Ratio JAK2/JAK1 [2]: 5.5
- IC50 [3]: 5 to 20 nM

SMILES: N#CCC1(n2cc(-c3ncnc4[nH]ccc34)cn2)CN(C2CCN(C(=O)c3ccc(-c4cccc5ccncc45)c(F)c3)CC2)C1 [Example 131, {1-[1-(3-fluoro-4-isoquinolin-8-ylbenzoyl)piperidin-4-yl]-3-[4-(7H-pyrrolo[2,3-d]pyrimidin-4-yl)-1H-pyrazol-1-yl]azetidin-3-yl}acetonitrile]
- IC50 [1]: 10 to 50 nM
- IC50 Ratio JAK2/JAK1 [2]: 8.1
- IC50 [3]: ≤ 5 nM

SMILES: N#CCC1(n2cc(-c3ccnc4[nH]ccc34)cn2)CN(C2CCN(C(=O)c3ccc(O)c(F)c3)CC2)C1 [Example 296, {1-[1-(3-fluoro-4-hydroxybenzoyl)piperidin-4-yl]-3-[4-(1H-pyrrolo[2,3-b]pyridin-4-yl)-1H-pyrazol-1-yl]azetidin-3-yl}acetonitrile]
- IC50 [1]: 10 to 50 nM
- IC50 Ratio JAK2/JAK1 [2]: 4.6
- IC50 [3]: ≤ 5 nM

SMILES: N#CCC1(n2cc(-c3ccnc4[nH]ccc34)cn2)CN(C2CCN(C(=O)c3ccnc(C(F)(F)F)n3)CC2)C1 [Example 299, [3-[4-(1H-pyrrolo[2,3-b]pyridin-4-yl)-1H-pyrazol-1-yl]-1-(1-{[2-(trifluoromethyl)pyrimidin-4-yl]carbonyl}piperidin-4-yl)azetidin-3-yl]acetonitrile]
- IC50 [1]: > 100 nM
- IC50 Ratio JAK2/JAK1 [2]: 6.6
- IC50 [3]: 20 to 30 nM

SMILES: N#CCC1(n2cc(-c3ncnc4[nH]ccc34)cn2)CN(C2CCN(C(=O)OCC3CC3)CC2)C1 [Example 391, cyclopropylmethyl 4-{3-(cyanomethyl)-3-[4-(7H-pyrrolo[2,3-d]pyrimidin-4-yl)-1H-pyrazol-1-yl]azetidin-1-yl}piperidine-1-carboxylate]
- IC50 [1]: 50 to 100 nM
- IC50 Ratio JAK2/JAK1 [2]: 10.6
- IC50 [3]: 5 to 20 nM

SMILES: N#CCC1(n2cc(-c3c(C#N)cnc4[nH]ccc34)cn2)CN(C2CCN(C(=O)c3cc(C#N)cc(C#N)c3)CC2)C1 [Example 338, 5-[(4-{3-(cyanomethyl)-3-[4-(5-cyano-1H-pyrrolo[2,3-b]pyridin-4-yl)-1H-pyrazol-1-yl]azetidin-1-yl}piperidin-1-yl)carbonyl]isophthalonitrile]
- IC50 [1]: 50 to 100 nM
- IC50 Ratio JAK2/JAK1 [2]: 7.4
- IC50 [3]: 5 to 20 nM

SMILES: N#CCC1(n2cc(-c3ncnc4[nH]ccc34)cn2)CN(C2CCN(C(=O)c3c(F)ccc(F)c3F)CC2)C1 [Example 47, {3-[4-(7H-pyrrolo[2,3-d]pyrimidin-4-yl)-1H-pyrazol-1-yl]-1-[1-(2,3,6-trifluorobenzoyl)piperidin-4-yl]azetidin-3-yl}acetonitrile]
- IC50 [1]: ≤ 10 nM
- IC50 Ratio JAK2/JAK1 [2]: 3.7
- IC50 [3]: ≤ 5 nM

SMILES: COc1ccccc1NC(=O)N1CCC(N2CC(CC#N)(n3cc(-c4ncnc5[nH]ccc45)cn3)C2)CC1 [Example 180, 4-{3-(cyanomethyl)-3-[4-(7H-pyrrolo[2,3-d]pyrimidin-4-yl)-1H-pyrazol-1-yl]azetidin-1-yl}-N-(2-methoxyphenyl)piperidine-1-carboxamide]
- IC50 [1]: 10 to 50 nM
- IC50 Ratio JAK2/JAK1 [2]: 4.0
- IC50 [3]: ≤ 5 nM

SMILES: N#CCC1(n2cc(-c3ncnc4[nH]ccc34)cn2)CN([C@@H]2CCN(C(=O)c3ccnc(C(F)(F)F)c3F)C[C@@H]2F)C1 (relative stereo) [Example 361, {1-{cis-3-Fluoro-1-[3-fluoro-2-(trifluoromethyl)isonicotinoyl]piperidin-4-yl}-3-[4-(7H-pyrrolo[2,3-d]pyrimidin-4-yl)-1H-pyrazol-1-yl]azetidin-3-yl}acetonitrile]
- IC50 [1]: 50 to 100 nM
- IC50 Ratio JAK2/JAK1 [2]: 20.9
- IC50 [3]: ≤ 5 nM

SMILES: N#CCC1(n2cc(-c3ncnc4[nH]ccc34)cn2)CN(C2CCN(C(=O)c3cc4cccc(C(F)(F)F)c4s3)CC2)C1 [Example 95, [3-[4-(7H-pyrrolo[2,3-d]pyrimidin-4-yl)-1H-pyrazol-1-yl]-1-(1-{[7-(trifluoromethyl)-1-benzothien-2-yl]carbonyl}piperidin-4-yl)azetidin-3-yl]acetonitrile]
- IC50 [1]: ≤ 10 nM
- IC50 Ratio JAK2/JAK1 [2]: 2.7
- IC50 [3]: ≤ 5 nM
